Assay [1] addresses T1, Full length wild-type cereblon CRBN (Homo sapiens, UniProt Q96SW2).
T1 construct: Full length wild-type cereblon CRBN (80.0 nM, 10 μL) was incubated in assay buffer
In words: Fluorescence polarization (FP) assay, cereblon binding. A digest of the protocol:
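Full-length wild-type human CRBN (80.0 nM) was preincubated with compound for 30 min at room temperature in 20 mM HEPES pH 8.0, 150 NaCl, 0.5 mM TCEP and 0.05% Tween 20. A Cy5-type thalidomide-linked fluorescent probe was then added. The FP signal was normalized to the DMSO control to derive IC50.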
A general note: Fluorescence polarisation rises when a labelled molecule tumbles more slowly, as on binding a larger partner.

For assay [2], the target named is T2, GSPT1 (Homo sapiens, UniProt P15170+Q96SW2). In words: Immunofluorescence assay for GSPT1 degradation in CAL-51 cells (Example 4). Type of assay: cell-based. Set-up: host or cells: CAL-51. As to the method: The representative compounds were tested in an immunofluorescence assay for their activity to bind to degrade GSPT1. […] Compounds were stored at 10 mM DMSO stocks. […] Cells were subsequently rinsed with PBS and fixed in 10% Formalin solution (50 μl, Sigma HT5011)) for 20 mins at room temperature. […] Following three further PBS washes, […] blocking buffer (1% BSA, Sigma A4503, in PBS) was added for 45 min for signal-to-noise reduction.
Primary antibody (human GSPT1, Sigma HPA052488) was diluted in blocking buffer (dil.1/300, 35 μl/well) and incubated with the cells overnight at 4° C. […] After three final PBS washes, samples were conserved in 100 μl PBS in the dark, until measurement. Image acquisition was performed on the Operetta High-Content Imager (Perkin-Elmer). […] For the determination of GSPT1 DC50 values, a custom algorithm implemented in the PerkinElmer image analysis software Harmony-Acapella® was developed. After user-defined setting of adjustment parameters, the analysis was run identically without human intervention for all image fields. DAPI staining of the nuclei was used to determine the location of cells using standard nuclei detection modules. Segmentation artifacts were removed by threshold-based filters for area, roundness and intensity. The outline of the cells was determined analogously from the sum of the normalized, smoothed DAPI and Actin channel, starting from each nucleus.
GSPT1 degradation (DC50) was calculated after normalization to controls and data import in CDD vault Database, using non-linear regression.

Assay [3] addresses T3, IKZF1 (Ikaros) (Homo sapiens, UniProt Q13422).
T3 construct: endogenous in cells; host or cells: MM1S (ATCC CRL-2974)
The assay is described as follows: Western blot selectivity assay in MM1S cells: IKZF1. Type of assay: cell-based. Set-up: key: A represents a no degradation observed at 30 μM; B represents trace degradation at 30 μM (below 20%); C represents weak degradation at 30 μM (below 50%); D represents degradation at 30 μM (>90%); E represents degradation at 3 μM (>90%); F represents degradation at 0.3 μM (>90%). Conditions: MM1S cells, 0.3, 3 and 30 μM, 6 hours. As to the method:
(§1) MM1S cells were purchased from ATCC (cat. Number CRL-2974), sub-cultured in 90% RPMI 1640 with 10% FBS, supplemented with 1×P/S and incubated at 37° C., 5% CO2. Compounds were stored as 10 mM DMSO stock. For the assay, MM1S cells (3 million cells/well) were plated in 6-well plates and incubated over night. Cells were treated with respective compounds using a serial dilution: 0.3 μM, 3 μM and 30 μM as well as a vehicle only (DMSO) control for 6 hours. Media with suspension cells was subsequently transferred to 15 mL conical tubes, wells rinsed twice with ice-cold PBS and merged with cell suspension in respective 15 mL conical tube. Cells were spinned down, supernatant aspirated, pellets resuspended in ice-cold PBS and transferred to microtubes. Cells were spinned down, supernatant aspirated and pellets resuspended in 120 μL RIPA lysis buffer supplemented with protease and phosphatase inhibitors. Cell lysates were incubated on ice for 20 minutes followed by centrifugation at >20,000×g for 5 min. Supernatants were transferred to fresh microtubes and stored at −80° C. Total protein concentration was determined using a BCA assay with a BSA standard curve and concentration of all samples was adjusted to 1 mg/mL. 25 μL 4×LDS sample buffer supplemented with 100 mM DTT was added to 75 μL sample. Samples were centrifuged (8,000×g, 1 min) and incubated at 95° C. for 5 min followed by another centrifugation step (8,000×g, 1 min). 20 μL of each sample was loaded on a 4-12% gel alongside a protein molecular weight marker. Gels were run in the presence of MOPS buffer at 80 Volts for 30 min, followed by 120 Volts for 1.5 h and proteins subsequently transferred onto nitrocellulose membranes at 20 Volts for 7 min using an iBlot2 Gel Transfer Device. Membranes were then cut horizontally into two pieces, covering 80-50 kDa and 50-25 kDa. Blocking the membranes was performed by gently shaking in 5% (w/v) skim milk in TSB-T for 1 hr at room temperature. All primary antibodies were used at a 1/1000 in 5% (w/v) BSA dissolved in TBST and incubated with membranes over night at 4° C. Anti-IKZF1 (Ikaros; D6N9Y; 14859S), anti-IKZF3 (Aiolos; D1C1E; 15103S) antibodies were purchased from Cell Signalling Technology, anti-ZFP91 antibody from Bethyl laboratories, anti-GSPT1 from Sigma Aldrich (HPA052488) and anti CK1alpha from AbCam (ab206652). After three washes with 1×TBST for 5 min, HRP-coupled secondary antibodies diluted in 5% (w/v) BSA/TBST (Goat Anti-Rb IgG, dil. 1/10,000; Goat Anti-Mouse IgG, dil. 1/5000) were added for 1 hr at room temperature. After three washes with 1×TBST (5 minutes each), membranes were incubated with ECL reagent for 1 min at room temperature. Chemiluminescence signals were then detected using a LAS-4000 system with default settings and signals quantified using Image Studio Lite software (version 5.2). Membrane parts previously incubated with antibody against CK1alpha were stripped off antibodies by incubating with stripping buffer for 30 minutes followed by three washed with TBST (5 min each), blocking with 5% (w/v) skim milk for 1 hr, and incubation with primary antibody against GAPDH overnight at 4° C. Subsequent washes, incubation with secondary antibody and signal acquisition were performed as described above.
Background: A western blot detects proteins with antibodies after separation by electrophoresis.

Assay [4] has as its target T2, GSPT1. In words: Western blot selectivity assay in MM1S cells: GSPT1. Type of assay: cell-based. On the set-up: endogenous in cells; host or cells: MM1S (ATCC CRL-2974). The following applies: MM1S cells, 0.3, 3 and 30 μM, 6 hours. How it is done: as §1
For assay [5], the target named is CRBN-DDB1 (Homo sapiens, UniProt Q96SW2). In words: HTRF binding of compounds to CRBN. An outline of the steps:
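CRBN-DDB1 binding measured by HTRF displacement of a Cy5-labelled thalidomide-type probe; 10-point 1:3 compound series, 30 min at ambient temperature. IC50 from curve fitting; Ki from geometric-mean IC50 via Cheng-Prusoff.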
A general note: Time-resolved FRET reads energy transfer from a long-lived donor to a nearby acceptor.

Assay [6] addresses T2, GSPT1. In words: Immunofluorescence assay for GSPT1 degradation in CAL-51 cells (Example 10). Type of assay: cell-based. On the set-up: host or cells: CAL-51. How it is done: The representative compounds were tested in an immunofluorescence assay for their activity to degrade GSPT1. […] Compounds were stored at 10 mM DMSO stocks. […] Cells were subsequently rinsed with PBS and fixed in 10% Formalin solution (50 μl, Sigma HT5011)) for 20 mins at room temperature. […] Following three further PBS washes, 50 μL blocking buffer (1% BSA, Sigma A4503, in PBS) was added for 45 min for signal-to noise reduction. Primary antibody (human GSPT1, Sigma HPA052488) was diluted in blocking buffer (dil.1/300, 35 μL/well) and incubated with the cells overnight at 4° C. […] After three final PBS washes, samples were conserved in 100 μL PBS in the dark, until measurement. Image acquisition was performed on the Operetta High-Content Imager (Perkin-Elmer). […] For the determination of GSPT1 DC50 values, a custom algorithm implemented in the PerkinElmer image analysis software Harmony-Acapella® was developed. After user-defined setting of adjustment parameters, the analysis was run identically without human intervention for all image fields.
DAPI staining of the nuclei was used to determine the location of cells using standard nuclei detection modules. Segmentation artifacts were removed by threshold-based filters for area, roundness and intensity. The outline of the cells was determined analogously from the sum of the normalized, smoothed DAPI and Actin channel, starting from each nucleus. […] GSPT1 degradation (DC50) was calculated after normalization to controls and data import in CDD vault Database, using non-linear regression.

[7] abbreviates: bounds stated in the text lists b2059-b2061, read-out: IC50 value.
Where [8] appears, read: cereblon binding, class code, read-out: rFP IC50.
The mark [9] stands for this setting: CAL-51 cells, 6 hours, read-out: Code (activity for GSPT1 degradation, DC50).
Where [10] appears, read: compounds with code A, read-out: DC50 value.
[11] abbreviates: read-out: HTRF Class (Cereblon binding, HTRF IC50).
Setting [12] is: 6 h, read-out: IF Class (GSPT1 degradation, DC50).

Structures are written as SMILES. Like-named read-outs stand apart in the source and are kept apart here.

One may read the IC50 as the midpoint of a concentration-inhibition curve. The DC50 is the concentration at which degradation of the target reaches its halfway point.

CRBN-DDB1, sequence (Q96SW2 whole entry): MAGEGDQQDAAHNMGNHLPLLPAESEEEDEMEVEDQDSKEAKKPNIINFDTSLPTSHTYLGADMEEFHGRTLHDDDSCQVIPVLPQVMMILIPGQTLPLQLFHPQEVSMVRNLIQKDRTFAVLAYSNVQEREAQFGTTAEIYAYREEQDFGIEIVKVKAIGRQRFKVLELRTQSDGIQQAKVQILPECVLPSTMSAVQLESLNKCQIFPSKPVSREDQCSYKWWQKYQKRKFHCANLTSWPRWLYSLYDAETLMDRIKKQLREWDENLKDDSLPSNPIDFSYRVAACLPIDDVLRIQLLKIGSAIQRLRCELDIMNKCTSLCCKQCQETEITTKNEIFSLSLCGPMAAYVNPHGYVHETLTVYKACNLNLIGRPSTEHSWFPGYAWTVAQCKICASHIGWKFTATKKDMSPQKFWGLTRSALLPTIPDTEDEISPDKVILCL
CRBN-DDB1, sequence (Q16531 whole entry partner): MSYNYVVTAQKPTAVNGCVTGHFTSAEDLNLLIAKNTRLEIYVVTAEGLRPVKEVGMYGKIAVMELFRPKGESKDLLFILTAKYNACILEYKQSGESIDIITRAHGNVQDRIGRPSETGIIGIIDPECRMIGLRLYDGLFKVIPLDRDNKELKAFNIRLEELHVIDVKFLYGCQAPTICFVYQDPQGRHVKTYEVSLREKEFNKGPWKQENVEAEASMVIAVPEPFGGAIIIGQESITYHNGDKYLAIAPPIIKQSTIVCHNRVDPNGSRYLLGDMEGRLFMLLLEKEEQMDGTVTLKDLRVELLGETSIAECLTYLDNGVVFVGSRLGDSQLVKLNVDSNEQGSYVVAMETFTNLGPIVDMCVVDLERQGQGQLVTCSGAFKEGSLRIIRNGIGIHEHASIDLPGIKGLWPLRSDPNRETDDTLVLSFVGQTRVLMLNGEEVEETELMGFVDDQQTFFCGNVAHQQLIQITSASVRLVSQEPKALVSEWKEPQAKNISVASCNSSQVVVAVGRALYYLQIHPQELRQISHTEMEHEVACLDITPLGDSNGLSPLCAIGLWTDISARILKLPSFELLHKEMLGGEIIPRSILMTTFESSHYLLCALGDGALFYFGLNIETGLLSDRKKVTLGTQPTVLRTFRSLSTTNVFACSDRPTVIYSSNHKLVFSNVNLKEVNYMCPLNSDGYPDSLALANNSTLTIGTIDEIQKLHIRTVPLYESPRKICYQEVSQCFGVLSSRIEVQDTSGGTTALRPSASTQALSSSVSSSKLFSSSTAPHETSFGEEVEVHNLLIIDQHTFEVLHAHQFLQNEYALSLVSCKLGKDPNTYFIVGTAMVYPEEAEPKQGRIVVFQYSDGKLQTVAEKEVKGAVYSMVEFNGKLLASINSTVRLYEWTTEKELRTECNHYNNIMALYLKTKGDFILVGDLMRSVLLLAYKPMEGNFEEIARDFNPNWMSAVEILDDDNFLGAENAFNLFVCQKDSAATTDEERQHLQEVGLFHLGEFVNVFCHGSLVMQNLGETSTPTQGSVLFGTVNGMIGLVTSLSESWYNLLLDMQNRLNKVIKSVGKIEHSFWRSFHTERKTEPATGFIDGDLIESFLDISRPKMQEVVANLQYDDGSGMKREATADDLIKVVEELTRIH
T3 sequence (Q96SW2 whole entry partner): as the sequence (Q96SW2 whole entry) above
T3 sequence (Q16531 2-1140 partner limits assumed): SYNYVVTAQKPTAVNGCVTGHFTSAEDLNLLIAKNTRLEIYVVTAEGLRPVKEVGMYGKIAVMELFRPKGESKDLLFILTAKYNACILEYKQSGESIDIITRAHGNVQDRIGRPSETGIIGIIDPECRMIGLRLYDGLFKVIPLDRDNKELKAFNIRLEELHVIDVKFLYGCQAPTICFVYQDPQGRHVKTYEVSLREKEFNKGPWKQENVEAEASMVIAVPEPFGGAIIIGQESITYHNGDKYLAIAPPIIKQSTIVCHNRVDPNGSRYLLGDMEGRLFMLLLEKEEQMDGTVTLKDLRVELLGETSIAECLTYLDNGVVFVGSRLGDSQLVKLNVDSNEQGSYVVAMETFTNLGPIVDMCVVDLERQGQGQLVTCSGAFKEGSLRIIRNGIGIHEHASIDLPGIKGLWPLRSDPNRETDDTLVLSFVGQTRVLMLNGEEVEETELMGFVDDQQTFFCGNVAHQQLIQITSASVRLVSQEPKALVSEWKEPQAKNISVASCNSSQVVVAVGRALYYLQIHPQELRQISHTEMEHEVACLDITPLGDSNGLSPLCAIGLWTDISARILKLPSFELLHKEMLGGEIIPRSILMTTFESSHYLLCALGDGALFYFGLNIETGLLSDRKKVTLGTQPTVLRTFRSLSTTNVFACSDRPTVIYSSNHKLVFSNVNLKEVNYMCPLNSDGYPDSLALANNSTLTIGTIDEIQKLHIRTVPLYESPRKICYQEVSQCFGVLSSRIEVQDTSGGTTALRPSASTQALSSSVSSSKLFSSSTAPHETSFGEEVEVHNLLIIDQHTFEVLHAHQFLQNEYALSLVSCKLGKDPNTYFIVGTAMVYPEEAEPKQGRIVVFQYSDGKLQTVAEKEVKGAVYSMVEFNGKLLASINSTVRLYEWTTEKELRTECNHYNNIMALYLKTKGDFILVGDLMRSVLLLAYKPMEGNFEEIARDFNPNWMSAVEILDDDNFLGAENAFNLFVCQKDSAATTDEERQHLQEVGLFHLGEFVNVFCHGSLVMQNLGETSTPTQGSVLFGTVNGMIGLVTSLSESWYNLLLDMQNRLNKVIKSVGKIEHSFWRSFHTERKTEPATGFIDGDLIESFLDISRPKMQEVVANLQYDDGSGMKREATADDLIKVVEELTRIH
T3 sequence (Q13422 whole entry): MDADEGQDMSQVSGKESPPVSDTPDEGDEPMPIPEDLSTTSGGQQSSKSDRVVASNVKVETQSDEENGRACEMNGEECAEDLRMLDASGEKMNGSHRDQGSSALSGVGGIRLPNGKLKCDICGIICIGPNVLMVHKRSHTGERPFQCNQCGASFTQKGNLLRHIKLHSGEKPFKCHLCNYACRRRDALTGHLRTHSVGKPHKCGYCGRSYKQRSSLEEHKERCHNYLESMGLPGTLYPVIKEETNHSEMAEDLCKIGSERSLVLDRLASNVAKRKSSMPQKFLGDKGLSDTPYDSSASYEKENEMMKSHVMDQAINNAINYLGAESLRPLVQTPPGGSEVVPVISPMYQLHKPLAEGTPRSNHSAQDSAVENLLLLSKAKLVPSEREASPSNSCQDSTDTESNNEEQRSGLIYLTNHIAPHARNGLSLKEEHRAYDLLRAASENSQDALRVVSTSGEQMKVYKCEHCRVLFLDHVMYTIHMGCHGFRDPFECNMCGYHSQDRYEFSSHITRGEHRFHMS
T1 sequence (Q96SW2 whole entry): as the sequence (Q96SW2 whole entry) above
T2 sequence (P15170 whole entry): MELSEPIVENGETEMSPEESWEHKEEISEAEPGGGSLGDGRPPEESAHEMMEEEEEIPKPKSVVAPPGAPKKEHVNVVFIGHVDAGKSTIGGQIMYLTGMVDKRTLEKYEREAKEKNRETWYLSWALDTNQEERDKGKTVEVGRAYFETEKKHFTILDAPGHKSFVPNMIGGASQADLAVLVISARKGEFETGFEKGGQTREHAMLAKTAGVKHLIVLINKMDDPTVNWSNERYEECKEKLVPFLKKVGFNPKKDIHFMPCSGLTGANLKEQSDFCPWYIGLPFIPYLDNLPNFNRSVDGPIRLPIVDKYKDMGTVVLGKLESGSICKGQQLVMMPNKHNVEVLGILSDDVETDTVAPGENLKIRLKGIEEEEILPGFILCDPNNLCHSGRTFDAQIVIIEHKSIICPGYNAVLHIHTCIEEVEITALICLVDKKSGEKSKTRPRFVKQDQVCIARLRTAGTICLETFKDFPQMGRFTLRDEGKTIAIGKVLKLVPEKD
T2 sequence (Q96SW2 whole entry): as the sequence (Q96SW2 whole entry) above
T2 sequence (Q16531 2-1140 partner limits assumed): as the sequence (Q16531 2-1140 partner limits assumed) above

On to `CCc1cc(NC(=O)OCc2ccc3c(c2)C(=O)N(C2CCC(=O)NC2=O)C3)sn1` (stereo not shown) [Compound 151], for which the IC50 in assay [1] (setting [7]) and in assay [1] (setting [8]) was below 500 nM in each case. For the same compound, in assay [2] (setting [9]), the DC50 is 0.03 to 0.3 µM.

Take `Cc1c(Cl)cc(NC(=O)OCc2ccc3c(c2)C(=O)N(C2CCC(=O)NC2=O)C3)cc1CC1COCCN1C` (stereo not shown) [Compound 150, (2-(2,6-dioxopiperidin-3-yl)-3-oxoisoindolin-5-yl) methyl(3-chloro-4-methyl-5-((4-methylmorpholin-3-yl)methyl)phenyl)carbamate]: the IC50 in assay [1] (IC50 value, bounds stated in the text lists b2059-b2061) was below 1700 nM; in assay [1] (rFP IC50 [nM], cereblon binding, class code), 1100 to 1700 nM. Also, the DC50 in assay [2] (setting [10]) is at most 0.03 µM; in assay [2] (read-out: Code (activity for GSPT1 degradation, DC50), CAL-51 cells, 6 hours), below 0.03 µM.

Take `O=C1CCC(N2Cc3ccc(COC(=O)Nc4cccc(OC5CC5(F)F)c4)cc3C2=O)C(=O)N1` (stereo not shown) [Compound 140]: the IC50 in assay [1] (setting [7]) is below 1100 nM; in assay [1] (setting [8]), 500 to 1100 nM. Besides, the DC50 in assay [2] (setting [9]) is below 0.03 µM; in assay [2] (setting [10]), at most 0.03 µM.

Consider `O=C1CCC(N2Cc3ccc(COC(=O)Nc4ccc(C5(F)CC5)cc4)cc3C2=O)C(=O)N1` (stereo not shown) [Compound 115, (2-(2,6-dioxopiperidin-3-yl)-3-oxoisoindolin-5-yl)methyl(4-(1-fluorocyclopropyl)phenyl) carbamate], for which the IC50 in assay [1] (setting [7]) and in assay [1] (setting [8]) was below 500 nM throughout. Besides, in assay [2] (setting [9]), the DC50 lay within 0.03 to 0.3 µM.

Regarding `CC(C)(C)c1ccc(NC(=O)OCc2ccc3c(c2)C(=O)N(C2CCC(=O)NC2=O)C3)cn1` (stereo not shown) [Compound 43], in assay [3], the IKZF1 degradation entry is “A”. Further, the GSPT1 degradation result in assay [4] was “F (F represents degradation at 0.3 μM (>90%))”.

As to `O=C1CCC(N2Cc3ccc(COC(=O)Nc4cc(Cl)cc(OC(F)(F)F)c4)cc3C2=O)C(=O)N1` (stereo not shown) [Compound 11], the DC50 in assay [2] (setting [10]) is at most 0.03 µM.

For `CC(C)(C)N1CC(NC(=O)OCc2ccc3c(c2)C(=O)N(C2CCC(=O)NC2=O)C3)C1` (stereo not shown) [Compound 172, (2-(2,6-dioxopiperidin-3-yl)-3-oxoisoindolin-5-yl)methyl (1-(tert-butyl)azetidin-3-yl)carbamate], the IC50 in assay [5] (setting [11]) lay in the range of 0.1 to 1 µM. The DC50 in assay [6] (setting [12]) is above 0.3 µM.

Regarding `O=C1CCC(N2Cc3ccc(COC(=O)Nc4ccc(N5CCCCC5)nc4)cc3C2=O)C(=O)N1` (stereo not shown) [Compound 15], the IC50 in assay [1] (setting [7]) is below 1700 nM; in assay [1] (setting [8]), 500 to 1100 nM. In addition, in assay [3], the IKZF1 degradation result was “A”. Besides, in assay [4], the GSPT1 degradation entry is reported as “F (F represents degradation at 0.3 μM (>90%))”.

Regarding `CC1(c2ccc(NC(=O)OCc3ccc4c(c3)C(=O)N(C3CCC(=O)NC3=O)C4)nc2)CC1` (stereo not shown) [Compound 188], in assay [5], the IC50 lay within 0.1 to 1 µM. For the same compound, the DC50 in assay [6] (read-out: IF Class (GSPT1 degradation, DC50), 6 h) was below 0.03 µM.

For `Cc1cc(NC(=O)OCc2ccc3c(c2)C(=O)N(C2CCC(=O)NC2=O)C3)ccc1Cl` (stereo not shown) [Compound 165, (2-(2,6-dioxopiperidin-3-yl)-3-oxoisoindolin-5-yl)methyl (4-chloro-3-methylphenyl)carbamate], the IC50 in assay [5] (setting [11]) is 0.1 to 1 µM. Besides, the DC50 in assay [6] (setting [12]) was below 0.03 µM.

In the case of `O=C1CCC(N2Cc3ccc(COC(=O)Nc4ccc(C5CCC5)cn4)cc3C2=O)C(=O)N1` (stereo not shown) [Compound 181, (2-(2,6-dioxopiperidin-3-yl)-3-oxoisoindolin-5-yl)methyl (5-cyclobutylpyridin-2-yl)carbamate], the IC50 in assay [5] (setting [11]) fell in the range of 0.1 to 1 µM. Moreover, the DC50 in assay [6] (setting [12]) lay in the range of 0.03 to 0.3 µM.

Take `Cc1c(Cl)cc(NC(=O)OCc2ccc3c(c2)C(=O)N(C2CCC(=O)NC2=O)C3)cc1OCCN1CCOCC1` (stereo not shown) [Compound 48]: the IC50 is below 1700 nM in assay [1] (setting [7]) and 1100 to 1700 nM in assay [1] (setting [8]). Besides, the IKZF1 degradation result in assay [3] is given as “A”. The GSPT1 degradation entry in assay [4] was “F (F represents degradation at 0.3 μM (>90%))”.

Regarding `O=C1CCC(N2Cc3ccc(COC(=O)N[C@H]4C[C@@H](c5ccccc5)C4)cc3C2=O)C(=O)N1` (stereo partly shown) [Compound 158, (2-(2,6-dioxopiperidin-3-yl)-3-oxoisoindolin-5-yl)methyl ((1s,3s)-3-phenylcyclobutyl)carbamate], the IC50 in assay [5] (setting [11]) is below 0.1 µM. Besides, the DC50 in assay [6] (setting [12]) is above 0.3 µM.

On to `Cc1ccc(NC(=O)OCc2ccc3c(c2)C(=O)N(C2CCC(=O)NC2=O)C3)cc1` (stereo not shown) [Compound 162, (2-(2,6-dioxopiperidin-3-yl)-3-oxoisoindolin-5-yl)methyl p-tolylcarbamate], for which, in assay [5] (setting [11]), the IC50 was 0.1 to 1 µM. Further, in assay [6] (setting [12]), the DC50 is above 0.3 µM.
